Read-outs that look alike come from different tables or passages of the source. Some results are limits rather than exact numbers.

One experiment has as its target Endothelial lipase (EL) (Homo sapiens (Human), UniProt Q9Y5X9). Put plainly: EL assay: endothelial lipase activity with fluorescent substrate A10070 in DMPG vesicles. Format: biochemical. Put shortly:
(§1)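 Compounds were preincubated with enzyme for 30 min at 37° C before FRET-substrate vesicles (A10070 in DMPG, 0.11 mole fraction) were added. Reaction rates were obtained from the 300–900 sec slope of fluorescence at 490/530 nm.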

Another experiment deals with hepatic lipase (HL) (Homo sapiens (Human), UniProt P11150). As to the kind of experiment: HL assay: hepatic lipase activity with fluorescent substrate A10070 in DMPG vesicles. Type of experiment: biochemical. In a few lines: as §1
[1] abbreviates: EL from conditioned media of HT-1080 cells, 30 min incubation with compound at 37° C., A10070/DMPG vesicles.
[2] abbreviates: HL partially purified from conditioned media of COS cells, 30 min incubation with compound at 37° C., A10070/DMPG vesicles.

Endothelial lipase (EL), sequence (Q9Y5X9 21-500): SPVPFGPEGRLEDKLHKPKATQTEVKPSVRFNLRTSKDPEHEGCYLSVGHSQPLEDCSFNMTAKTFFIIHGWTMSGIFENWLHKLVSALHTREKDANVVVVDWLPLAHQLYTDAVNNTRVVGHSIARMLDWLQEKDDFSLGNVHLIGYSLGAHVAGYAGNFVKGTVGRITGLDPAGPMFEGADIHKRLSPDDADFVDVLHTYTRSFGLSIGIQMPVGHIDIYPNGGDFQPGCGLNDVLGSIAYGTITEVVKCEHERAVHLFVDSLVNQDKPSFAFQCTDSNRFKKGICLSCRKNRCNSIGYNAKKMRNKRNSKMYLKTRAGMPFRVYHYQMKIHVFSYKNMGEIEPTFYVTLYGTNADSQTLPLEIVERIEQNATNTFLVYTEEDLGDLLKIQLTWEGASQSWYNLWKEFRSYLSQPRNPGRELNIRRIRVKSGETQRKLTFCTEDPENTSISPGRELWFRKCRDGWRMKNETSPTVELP
hepatic lipase (HL), sequence (P11150 23-499, species assumed): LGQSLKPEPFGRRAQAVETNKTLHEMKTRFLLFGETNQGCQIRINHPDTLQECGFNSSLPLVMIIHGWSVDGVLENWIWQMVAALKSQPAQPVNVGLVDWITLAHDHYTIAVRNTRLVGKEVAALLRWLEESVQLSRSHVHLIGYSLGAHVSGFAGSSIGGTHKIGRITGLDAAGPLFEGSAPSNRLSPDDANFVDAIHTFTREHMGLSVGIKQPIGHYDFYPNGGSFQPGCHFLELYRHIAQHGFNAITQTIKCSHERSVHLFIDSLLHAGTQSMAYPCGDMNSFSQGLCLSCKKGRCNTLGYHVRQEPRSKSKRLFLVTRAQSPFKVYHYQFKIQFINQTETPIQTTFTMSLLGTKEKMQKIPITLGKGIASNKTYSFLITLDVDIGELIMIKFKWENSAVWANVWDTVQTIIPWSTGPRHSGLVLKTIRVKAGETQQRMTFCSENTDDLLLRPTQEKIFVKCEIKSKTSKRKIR

The term IC50 denotes the concentration that inhibits the measured activity by half. As for `CS(=O)(=O)C(C(=O)NCCS(N)(=O)=O)c1nc2cc(-c3ccnc(F)c3)ccc2s1` (stereo not shown) [Example B95, 2-[5-(2-fluoro-4-pyridinyl)-1,3-benzothiazol-2-yl]-2-(methylsulfonyl)-N-(2-sulfamoylethyl)acetamide], the IC50 at Endothelial lipase (EL) was under 10 nM; against hepatic lipase (HL), 70 nM.
Taken in the same sequence, the figures for `Cc1nnc(CNC(=O)C(c2nc3cc(C)c(-c4ccc(C(=O)N5CCOCC5)cc4)cc3s2)S(=O)(=O)Cc2ccccc2)o1` (stereo not shown) [Example B96, 2-(benzylsulfonyl)-2-(5-methyl-6-(4-(4-morpholinylcarbonyl)phen-yl)-1,3-benzothiazol-2-yl)-N-((5-methyl-1,3,4-oxadiazol-2-yl)methyl)a-cetamide] were 27 nM and 251 nM.
Taken in the same sequence, the figures for `COc1ccc(-c2cc3sc(C(C(=O)NCc4nnc(C)o4)S(=O)(=O)Cc4ccccc4)nc3cc2C)cn1` (stereo not shown) [Example B97, 2-(benzylsulfonyl)-2-(6-(6-methoxy-3-pyridinyl)-5-methyl-1,3-benzothiazol-2-yl)-N-((5-methyl-1,3,4-oxadiazol-2-yl)methyl)a-cetamide] were 24 nM and 57 nM.
For `CS(=O)(=O)C(C(=O)NCCS(N)(=O)=O)c1nc2ccc(-c3cnn(C4CCNCC4)c3)cc2s1` (stereo not shown) [Example B98, 2-(Methylsulfonyl)-2-(6-(1-(4-piperidinyl)-1H-pyrazol-4-yl)-1,3-benzothiazol-2-yl)-N-(2-sulfamoylethyl)acetamide], the IC50 on Endothelial lipase (EL) (setting [1]) was under 10 nM; at hepatic lipase (HL) (setting [2]) it was 464 nM.
On the same counts, the results for `COCCNC(=O)c1ccc(-c2ccc3nc(C(C(=O)NCCS(N)(=O)=O)S(=O)(=O)Cc4ccccc4)sc3c2)cc1` (stereo not shown) [Example B99, 4-(2-(1-(Benzylsulfonyl)-2-oxo-2-((2-sulfamoylethyl)amino)ethyl)-1,3-benzothiazol-6-yl)-N-(2-methoxyethyl)benzamide] are under 10 nM and 55 nM.
For `COCCS(=O)(=O)C(C(=O)NCCS(N)(=O)=O)c1nc2ccc(-c3ccc(C(=O)N4CCOCC4)cc3)cc2s1` (stereo not shown) [Example B100, 2-((2-methoxyethyl)sulfonyl)-2-(6-(4-(4-morpholinyl-carbonyl)phenyl)-1,3-benzothiazol-2-yl)-N-(2-sulfamoylethyl)acetamide], the IC50 on Endothelial lipase (EL) was under 10 nM; on hepatic lipase (HL) it was 1240 nM.
Taken in the same sequence, the figures for `CS(=O)(=O)C(C(=O)NCCS(N)(=O)=O)c1nc2ccc(-c3ccc(C(=O)N4CCOCC4)cc3)cc2s1` (stereo not shown) [Example B101, 2-(methylsulfonyl)-2-(6-(4-(4-morpholinylcarbonyl)phen-yl)-1,3-benzothiazol-2-yl)-N-(2-sulfamoylethyl)a-cetamide] were under 10 nM and 63 nM.
On the same counts, the results for `NS(=O)(=O)CCNC(=O)C(c1nc2ccc(-c3ccc(C(=O)N4CCOCC4)cc3)cc2s1)S(=O)(=O)Cc1ccccc1` (stereo not shown) [Example B102, 2-(benzylsulfonyl)-2-(6-(4-(4-morpholinylcarbonyl)phen-yl)-1,3-benzothiazol-2-yl)-N-(2-sulfamoylethyl)a-cetamide] are 18 nM and 5290 nM.
Taken in the same sequence, the figures for `COCCS(=O)(=O)C(C(=O)NCCS(N)(=O)=O)c1nc2ccc(-c3ccccc3)cc2s1` (stereo not shown) [Example B103, 2-((2-methoxyethyl)sul-fonyl)-2-(6-phenyl-1,3-benzothiazol-2-yl)-N-(2-sulfamoylethyl)acetemide] were under 10 nM and under 10 nM.
Regarding `NS(=O)(=O)CCNC(=O)C(c1nc2ccc(-c3ccccc3)cc2s1)S(=O)(=O)Cc1ccccc1` (stereo not shown) [Example B104, 2-(benzylsulfonyl)-2-(6-phenyl-1,3-benzothiazol-2-yl)-N-(2-sulfamoylethyl)a-cetamide], the half-inhibitory concentration (IC50) against Endothelial lipase (EL) and at hepatic lipase (HL) was under 10 nM throughout.
Regarding `CCS(=O)(=O)C(C(=O)NCCS(N)(=O)=O)c1nc2ccc(-c3ccccc3)cc2s1` (stereo not shown) [Example B105, 2-(ethylsulfonyl)-2-(6-phenyl-1,3-benzothiazol-2-yl)-N-(2-sulfamoylethyl)a-cetamide], the half-inhibitory concentration (IC50) on Endothelial lipase (EL) and against hepatic lipase (HL) was under 10 nM each time.
Consider `CC(C)CS(=O)(=O)C(C(=O)NCCS(N)(=O)=O)c1nc2ccc(-c3ccccc3)cc2s1` (stereo not shown) [Example B106, 2-(isobutylsulfonyl)-2-(6-phenyl-1,3-benzothiazol-2-yl)-N-(2-sulfamoylethyl)a-cetamide], for which the IC50 against Endothelial lipase (EL) and on hepatic lipase (HL) was under 10 nM each time.
With `CCCS(=O)(=O)C(C(=O)NCCS(N)(=O)=O)c1nc2ccc(-c3ccccc3)cc2s1` (stereo not shown) [Example B107, 2-(6-phenyl-1,3-benzothiazol-2-yl)-2-(propylsulfonyl)-N-(2-sulfamoylethyl)acetamide], the IC50 against Endothelial lipase (EL) and on hepatic lipase (HL) was under 10 nM in each case.
Consider `NS(=O)(=O)CCNC(=O)C(c1nc2ccc(-c3ccc(C(=O)N4CCOCC4)cc3)cc2s1)S(=O)(=O)CCC(F)(F)F` (stereo not shown) [Example B108, 2-(6-(4-(4-morpholinyl-carbonyl)phenyl)-1,3-benzothiazol-2-yl)-N-(2-sulfamoylethyl)-2-((3,3,3-trifluoropropyl)sul-fonyl)acetamide], for which the results for the IC50 on Endothelial lipase (EL) and against hepatic lipase (HL) were under 10 nM and 23 nM, respectively.
Taken in the same sequence, the figures for `CC(C)CS(=O)(=O)C(C(=O)NCCS(N)(=O)=O)c1nc2ccc(-c3ccc(C(=O)N4CCOCC4)cc3)cc2s1` (stereo not shown) [Example B109, 2-(isobutylsulfonyl)-2-(6-(4-(4-morpholinyl-carbonyl)phenyl)-1,3-benzothiazol-2-yl)-N-(2-sulfamoylethyl)acetamide] were under 10 nM and 191 nM.
Taken in the same sequence, the figures for `COCCNC(=O)c1ccc(-c2ccc3nc(C(C(=O)NCCS(N)(=O)=O)S(=O)(=O)CCC(F)(F)F)sc3c2)cc1` (stereo not shown) [Example B110, N-(2-methoxyethyl)-4-(2-(2-oxo-2-((2-sulfamoyl-ethyl)amino)-1-((3,3,3-trifluoropropyl)sulfonyl)eth-yl)-1,3-benzothiazol-6-yl)benzamide] were under 10 nM and 180 nM.
Taken in the same sequence, the figures for `NS(=O)(=O)CCNC(=O)C(c1nc2ccc(-c3ccc(C(=O)N4CCOCC4)cc3)cc2s1)S(=O)(=O)CC1CC1` (stereo not shown) [Example B111, 2-((cyclopropylmethyl)sul-fonyl)-2-(6-(4-(4-morpholinylcarbonyl)phen-yl)-1,3-benzothiazol-2-yl)-N-(2-sulfamoylethyl)a-cetamide] were under 10 nM and 1460 nM.
In the case of `COCCNC(=O)c1ccc(-c2ccc3nc(C(C(=O)NCCS(N)(=O)=O)S(=O)(=O)Cc4ccc(F)cc4)sc3c2)cc1` (stereo not shown) [Example B112, 4-(2-(1-((4-fluorobenzyl)sul-fonyl)-2-oxo-2-((2-sulfamoylethyl)amino)eth-yl)-1,3-benzothiazol-6-yl)-N-(2-methoxyethyl)ben-zamide], the IC50 was under 10 nM against Endothelial lipase (EL) and 8330 nM against hepatic lipase (HL).
Taken in the same sequence, the figures for `COCCNC(=O)c1ccc(-c2ccc3nc(C(C(=O)NCCS(N)(=O)=O)S(=O)(=O)Cc4ccc(OC(F)(F)F)cc4)sc3c2)cc1` (stereo not shown) [Example B113, N-(2-methoxyethyl)-4-(2-(2-oxo-2-((2-sulfamoyl-ethyl)amino)-1-((4-(trifluoromethoxy)ben-zyl)sulfonyl)ethyl)-1,3-benzothiazol-6-yl)ben-zamide] were 0.7 nM and 48.2 nM.
Taken in the same sequence, the figures for `COCCNC(=O)c1ccc(-c2ccc3nc(C(C(=O)NCCS(N)(=O)=O)S(=O)(=O)Cc4cccc(C#N)c4)sc3c2)cc1` (stereo not shown) [Example B115] were 1.2 nM and 107 nM.

These data come from patent US8987314B2, “Amide, urea or sulfone amide linked benzothiazole inhibitors of endothelial lipase” (Bristol-Myers Squibb Company, priority 2012, dated 2015).
